≈ marks a conversion by molar mass, not a printed value. Like-named read-outs stand apart in the source and are kept apart here.

We go through three molecules from patent publication US20250032448A1, “COMPOUND FOR USE IN THE TREATMENT AND/OR PREVENTION OF PARASITIC MEDIATED DISEASES” (priority 2016, published 2025).

The subject of one data set is NL20 cells. Put plainly: Cytotoxicity assay (WST-1). On the procedure: (§1) Serial dilutions were performed using complete media (RPMI supplemented with 10% foetal bovine serum). The final concentration of DMSO for all test samples was not more than 0.4%.
(§2) Cytotoxicity was determined using the WST-1 assay (WST-1 cell proliferation reagent, Roche, Singapore). Exponentially growing NL20 cells were plated in 96-well plates at an optimized cell density of 3.5×10^4 cells/100 μl. The adherent cells were incubated overnight at 37° C. and 5% CO2 to allow attachment. After 48 h of treatment with test samples, the media were aspirated and replaced with 10% v/v WST-1 in complete media. The plates were incubated for 30 min. The absorbance in each well was quantitated at 440 nm against a reference wavelength of 650 nm using a microplate reader (EnSpire Multimode Plate Reader, PerkinElmer, USA).
(§3) Cell viability was expressed as a percentage of the vehicle control. […] Each reported value is the mean±SD from three independent experiments. The selectivity index (SI) was determined by taking the ratio of IC50 against P. falciparum and CC50 against NL20 cells.

The next data set in a line: in vitro. The settings on record: human. Here is the method: as §1, §2, §3
The subject of data set [1] is Plasmodium falciparum Dd2 (chloroquine-resistant strain). Put plainly: In vitro drug sensitivity assay (modified WHO microtest), schizont maturation. Format: cell-based. Here is the method:
(§4) For malaria culture, venous blood (not more than 50 ml) was collected by venepuncture from healthy adult volunteers. Host leukocytes were removed using a CF11 column, and packed infected red blood cells were used for the in vitro drug sensitivity assay. Ethical approval for this study was obtained from the Institutional Review Board, National University of Singapore (IRB protocol reference: B-14-056).
(§5) Parasites were thawed and grown in leukocyte-depleted red blood cells at 2% haematocrit at 37° C. in controlled conditions (3% oxygen, 4% carbon dioxide and 93% nitrogen), in RPMI 1640 tissue culture medium supplemented with 50 μg/ml hypoxanthine, 25 mM 4-(2-hydroxyethyl) piperazine-1-ethanesulfonic acid (HEPES), 0.3 g/L L-glutamine, 11 mM glucose, 25 mM NaHCO3, 2.5 μg/ml gentamicin and 0.5% w/v Albumax II.
(§6) Parasites were synchronized using sorbitol treatment. Red blood cells were resuspended in 5% (w/v) D-sorbitol and incubated at 37° C. for 20 minutes, after which the erythrocytes were washed twice, resuspended in RPMI and returned to culture conditions. Thin smears were made before and after each experiment to determine parasitaemia and parasite stage.
(§7) Crude extracts or fractions were preliminarily screened at a single concentration. For preliminary screening of isolated compounds, the starting concentrations used were 11.36 μg/ml and 5.953 μg/ml. Duplicates were performed. […] Seven concentrations of serial dilutions (two-fold) of each extract were added in duplicate on the 96-well pre-dosed drug plates (Nunc, Singapore). […] Triplicates were performed for IC50 determination.
(§8) 200 μl of a 2% haematocrit blood medium mixture consisting of RPMI 1640, […] gentamicin sulphate, 25 mM PEPES, 11 mM glucose, 200 μM hypoxanthine, and 0.5% w/v Albumax II (Gibco, Singapore) was added to each well of plates pre-dosed with the extracts. The parasites were cultured continuously in vented culture flasks in a gas chamber at 37° C. with 5% CO2 until they reached mature stage.
(§9) Thick blood smears were made from each well and stained with 5% Giemsa solution for 15 mins, and examined microscopically. The average number of schizonts (defined as parasites with five or more chromatin dots visible under microscopy) remaining at the end of the 42-48 hour incubation period per 100 parasites in each well was determined by microscopy, and normalized to the control well. Ring stage parasites and gametocytes were not included in the count. The dose-response curves were analysed using nonlinear regression analysis, and the concentration which inhibited 50% growth (IC50) was derived using an inhibitory sigmoid Emax model (Le Nagard et al. 2011).

Data set [2] relates to Plasmodium falciparum 3D7 (chloroquine-sensitive strain). The data set is described as above. It counts as cell-based. On the procedure:
as §4, §5, §6, §7, §8, §9

Another data set relates to uninfected host RBCs. It counts as cell-based. The settings on record: human, 1 h. Here is the method:
The toxicity of anisolactone in uninfected host RBCs was evaluated using the haemolysis assay, according to a protocol described previously by Sarkar et al. (2016) with some modifications. Freshly obtained RBCs were washed thrice with PBS (pH 7.4). The haemolysis assay was performed at 2% hematocrit with two-fold serial dilutions from 0.1 mg/ml of test compounds in a final volume of 200 μl, followed by incubation at 37° C. for 1 h. 1% Triton-X (v/v) was used as a positive control. Non-specific haemolysis was corrected for by using untreated RBCs as negative control. After incubation, the plates were centrifuged at 2000 rpm for 5 min and the absorbance of the supernatant was measured at 540 nm using a spectrophotometric plate reader (Tecan Sunrise, Switzerland) to measure the amount of haemoglobin released upon RBC lysis. The percentage of haemolysis was calculated as follows: [(Optical density (OD)540 of sample−OD540 of PBS)/(OD540 of 1% Triton X-100−OD540 of PBS)]×100. The compounds were tested in triplicates. Ethics approval for this study was obtained from the Institutional Review Board, National University of Singapore (IRB protocol reference: B-14-056).

[3] abbreviates: DD2, read-out: IC50 (in μg/ml) against P. falciparum Dd2.
[4] abbreviates: DD2, read-out: IC50 against P. falciparum Dd2 (molar value in brackets).
[5] abbreviates: 3D7, read-out: IC50 (in μg/ml) against P. falciparum 3D7.
Setting [6] is: 3D7, read-out: IC50 against P. falciparum 3D7 (Table 4).
Setting [7] is: 3D7, read-out: IC50 against P. falciparum 3D7 (molar value in brackets).

For `C[C@H]1[C@H](OC(=O)CCC(=O)O)O[C@@H]2O[C@@]3(C)CC[C@H]4[C@H](C)CC[C@@H]1[C@@]24OO3` [Artesunate, artesunate], in the data set on NL20 cells (P. falciparum 3D7 IC50 versus NL20 CC50), the “SI (selectivity index)” value came to 8123. For the same molecule, the CC50 at 48 h in “in vitro” amounted to 5.63 ± 0.82 µg/mL (≈ 14.6 µM). Moreover, the IC50 in data set [1] (setting [3]) worked out at 0.00211 ± 6.8e-07 µg/mL; in data set [1] (setting [4]), 5.48 nM; in data set [2] (setting [5]) it was 0.000693 ± 1.11e-08 µg/mL; in data set [2] (setting [6]), 0.000693 µg/mL; in data set [2] (setting [7]), 1.8 nM.
For `CCN(CC)CCCC(C)Nc1ccnc2cc(Cl)ccc12` (centres unmarked) [Chloroquine, chloroquine diphosphate], the IC50 came out at 0.16 ± 0.04 µg/mL in data set [1] (setting [3]); 310 nM in data set [1] (setting [4]); 0.0128 ± 1.4e-05 µg/mL in data set [2] (setting [5]); 0.0128 µg/mL in data set [2] (setting [6]); 24.4 nM in data set [2] (setting [7]).
Take `CC1=CC(C/C(C)=C/COc2c3ccoc3cc3oc(=O)ccc23)OC1=O` (centres unmarked) [Compound 1, anisolactone]: the “% Haemolysis” value in the data set on uninfected host RBCs came out at 0.99 ± 0.28%. In addition, the “cytotoxic effects on host cells (NL20)” value in the data set with NL20 cells was “did not exhibit cytotoxic effects”. In addition, the IC50 amounted to 7.5 µg/mL in data set [2] (3D7, as used for the selectivity index, read-out: IC50 against P. falciparum 3D7 (Table 4)); 7.5 µg/mL in data set [2] (3D7, n = 3, 42-48 hour incubation, read-out: IC50 (in μg/ml) against P. falciparum 3D7); 20500 nM in data set [2] (3D7, n=3, read-out: IC50 against P. falciparum 3D7 (molar value in brackets)).
